Measured values from PubChem BioAssay (NCI).
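A five-concentration, 48-hour dose response in 96-well plates underlies each endpoint, interpolated linearly between surrounding concentrations. Definition used: TGI = concentration required for complete inhibition of growth.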

Columns and labels:
Test in all cases: DTP human tumour cell line panel, 48 h
[1] = tested on: MDA-MB-231 breast
[2] = tested on: MDA-MB-435
[3] = tested on: MOLT-4 leukemia
[4] = tested on: OVCAR-8 ovarian
[5] = tested on: PC-3 prostate
[6] = tested on: SK-MEL-28 melanoma
[7] = tested on: SK-MEL-5 melanoma
[8] = tested on: SN12C renal
[9] = tested on: UACC-257 melanoma
[10] = tested on: BT-549 breast
[11] = tested on: RPMI-8226 leukemia

Measured: TGI

COc1ccc(S(=O)(=O)Nc2ccc(-c3csc(N4C(=O)/C(=C/c5ccccc5[N+](=O)[O-])N=C4c4ccccc4)n3)cc2)cc1Cl
78.5 µM: [1]
not listed: [10] | [11]
> 100 µM: all other assays above

CC(C)(C)C1=C(Br)C(F)(C(C)(C)C)OP1(=O)c1ccccc1 (stereo unspecified)
36.4 µM: [4]
29.9 µM: [2]
30.9 µM: [9]
32 µM: [5]
29.5 µM: [8]
22.9 µM: [7]
34.1 µM: [6]

COC(NC(=O)Nc1ccc(C)cc1)(C(F)(F)F)C(F)(F)F
30.6 µM: [7]
99 µM: [1]
78.5 µM: [4]
74.8 µM: [11]
48.6 µM: [3]
83.5 µM: [10]
not listed: [9]
> 100 µM: all other assays above

COc1ccc(/C=N\N(C)Cc2cccc3ccsc23)cc1
not listed: [11]
> 100 µM: all other assays above

Cc1c(NC(=S)Nc2ccc([N+](=O)[O-])cc2)c(=O)n(-c2ccccc2)n1C
not listed: [8]
> 100 µM: all other assays above

Cc1cc(N(CCC#N)CCC#N)ccc1/C(N=Nc1ccc([N+](=O)[O-])cc1)=N\NC(=O)c1cc(Cl)ccc1O
63 µM: [4]
72.3 µM: [3]
not listed: [6]
> 100 µM: all other assays above

CN(C)Cc1cc(Cl)c(O)c(CN(C)C)c1
not listed: [3]
> 100 µM: all other assays above

O=C1C(Cl)=C(Cl)C(=O)C(CCNc2nccs2)=C1Cl
42 µM: [2]
73.2 µM: [8]
42.2 µM: [5]
50.1 µM: [7]
> 100 µM: [3] | [6]
87.3 µM: [4]
54.3 µM: [9]

COC(=O)C(Cc1c[nH]c2ccccc12)NC(=O)C(Cc1cnc[nH]1)NC(=O)C1CCC(=O)N1C(=O)OCc1ccccc1 (stereo unspecified)
not listed: [1] | [2] | [8]
> 100 µM: all other assays above

NCC(=O)Nc1ccccc1
not listed: [11]
> 100 µM: all other assays above

CCOC(=O)C(NC(=O)c1cccc(Cl)c1)(Nc1ccc(S(=O)(=O)Nc2cc(C)on2)cc1)C(F)(F)F (stereo unspecified)
not listed: [10]
> 100 µM: all other assays above

COC(=O)c1ccc(NCc2cc(OC)ccc2OC)cc1
not listed: [8]
> 100 µM: all other assays above

CCOP(=O)(CC(=O)C1CC1)OCC
not listed: [2] | [11]
> 100 µM: all other assays above

Cc1ccc(S(=O)(=O)n2cc(C=O)c(-c3cn(S(=O)(=O)c4ccc(C)cc4)cc3-c3cn(S(=O)(=O)c4ccc(C)cc4)cc3C=O)c2)cc1
93.3 µM: [3]
not listed: [6]
> 100 µM: all other assays above

COC(=O)Nc1nc2ccc(NS(=O)(=O)c3cccs3)cc2[nH]1
21.4 µM: [2]
77.4 µM: [3]
not listed: [9]
> 100 µM: all other assays above

OC1NC2Nc3ccccc3NC2NC1O (stereo unspecified)
not listed: [10] | [11]
> 100 µM: all other assays above

O=[N+]([O-])c1ncc(N(CCO)CCO)s1
71.4 µM: [9]
80.6 µM: [10]
44.8 µM: [11]
33.2 µM: [6]
not listed: [7]
> 100 µM: all other assays above

COC(=O)C1=CO[C@@H](C)[C@@H]2Cn3ccc4c5ccccc5nc-4c3C[C@H]12
not listed: [1] | [2] | [5] | [10]
> 100 µM: all other assays above

Fc1cc(C2=Nn3c(COc4ccccc4Cl)nnc3S/C2=C\c2ccc(Cl)cc2)c(Cl)cc1Cl
13.4 µM: [6]
6.3 µM: [2]
68.9 µM: [5]
19 µM: [7]
not listed: [8] | [10]
> 100 µM: all other assays above

CCOP(=O)(OCC)Oc1c(OC)c2[nH]c(C(=O)OC)cc2c2c(C(=O)O)c[nH]c12
not listed: [11]
> 100 µM: all other assays above

COc1ccc(C(=O)/C=C/c2ccc(OCCCCCCCCCCOc3ccc(/C=C/C(=O)c4ccc(OC)cc4)cc3)cc2)cc1
not listed: [10]
> 100 µM: all other assays above

O=[N+]([O-])c1ccc(-c2csc(N=Nc3c(O)[nH]c4ccccc34)n2)cc1
42.8 µM: [10]
86.2 µM: [5]
70 µM: [4]
96.5 µM: [8]
not listed: [11]
> 100 µM: all other assays above
